The values that follow come from ChEMBL document CHEMBL3988442, “University of Dundee, Small-Polar-MMV Screening Library” (2021).

The test system of this assay is Plasmodium falciparum. Nature of the assay: Calibr Malaria Delayed Death Assay SOP. The assay is classed as functional, organism-based. Conditions: for IC50: Plasmodium falciparum.

Structures are written as SMILES. “And” between values parts separate entries of the source, which are not always exact repeats. Equal entries are not always repeated.

For orientation: pIC50 means the negative decadic logarithm of the IC50, by convention in mol/L. Read a low pIC50 as a large IC50. By IC50 is commonly meant the concentration that gives 50% inhibition. A low value points to inhibition by little substance. As for `CN(Cc1ccoc1)C(=O)C1(Oc2ccc(Cl)cc2)CCNCC1`, the pIC50 is 6.021 and the IC50 is 977 nM.

On to `CCN1CC(c2ccccc2)CC2(CCN(Cc3ncc[nH]3)CC2)C1` (centres undefined), for which the pIC50 came to 6.147 and the IC50 was 799 nM.

`Cc1ccccc1CN(CCN(C)C)Cc1ccc(S(C)(=O)=O)cc1` had a pIC50 of 5.997 and an IC50 of 890 nM.

Regarding `COCCn1ccnc1CN(Cc1ccccn1)Cc1sccc1C`, the pIC50 came to 6.065 and the IC50 was 650 nM.

Compound `CN1CCCC1CNC(=O)CCCOc1cccc(Br)c1` (centres undefined) had a pIC50 of 5.833 and an IC50 of 1170 nM.

Turning to `CNS(=O)(=O)c1cccc(C(C)NCc2ccccc2OC)c1` (centres undefined), the pIC50 was 6.041 and inhibition was half-maximal at 1090 nM (IC50).

As for `Cc1cccc(CN2CCC(Cc3ccccc3F)CC2)n1`, the pIC50 came out at 6.094 and the concentration for half-maximal inhibition (IC50) was 776 nM.

Take `Cc1cccc(NC(=O)c2cccc(OCc3nnnn3C)c2)n1`: the pIC50 worked out at 6.563 and half-maximal inhibition (IC50) was put at 278 nM.

Consider `Cl.Fc1cccc(F)c1Cn1c(C2CCCNC2)cc2cccnc21` (centres undefined), for which the negative-log IC50 (pIC50) is 6.143 and half-maximal inhibition (IC50) was put at 1050 nM.

Take `CN(Cc1cc(F)cc2cccnc12)CC1CCN(CCO)CC1`: the pIC50 amounted to 6.165 and the IC50 is 835 nM.

Take `O=C(O)C(F)(F)F.c1ccc(NC[C@@H]2CCC[C@@H]3CN(Cc4cccnc4)C[C@@H]32)nc1`: the pIC50 is 5.946 and it took 1220 nM to reach half-maximal inhibition (IC50).

On to `CN(Cc1cc(Cl)cc2cccnc12)CC1CCN(CCO)CC1`, for which the pIC50 amounted to 6.604 and the midpoint of inhibition, the IC50, lay at 346 nM.

Take `COc1cccc(Cn2c(C3CCNCC3)cc3cccnc32)c1.Cl`: the pIC50 is recorded as 6.096 and half-maximal inhibition (IC50) was put at 931 nM.

In turn, `Cc1nccn1CCCN1CCCC(c2ccccc2)C1` (centres undefined) gave a pIC50 of 6.639 and an IC50 of 234 nM.

In the case of `COc1cccc(CN2CC(=O)N(c3ccccc3C)CC2C)c1OC` (centres undefined), the negative logarithm of the IC50 (pIC50) is 5.928 and half-maximal inhibition (IC50) required 1420 nM.

Consider `Cc1cc(C)n(C2CN(CC(O)c3ccc(C(F)(F)F)cc3)C2)n1` (centres undefined), for which the pIC50 is listed as 5.98 and the IC50 was 1030 nM.

`Cn1nc(CN2CCCCC(N)C2)c2c(Cl)cccc21` (centres undefined) gave a pIC50 of 6.151 and an IC50 of 800 nM.

Take `CCc1ncc2c(n1)CN(CC(=O)Nc1ccc(Cl)cn1)CC2`: the pIC50 is reported as 5.772 and the IC50 was 1240 nM.

Take `c1ccc(Oc2nccc3occc23)c(CN2CCCCC2)c1`: the pIC50 was 6.272 and the IC50 was 735 nM.

`CC(O)CN1CCC(CNCc2cccc(Cl)c2)CC1` (centres undefined) had a pIC50 of 6.249 and an IC50 of 599 nM.

With `O=C(NCC1CCN(CCc2ccccc2)C1)c1cc(Cl)c[nH]1` (centres undefined), the pIC50 was 5.911 and the IC50 is 1260 nM.

`Cc1cccc2[nH]c(-c3cn(C4CCNCC4)nn3)nc12` showed a negative logarithm of the IC50 (pIC50) of 6.226 and a 50% inhibitory concentration (IC50) of 597 nM.

In turn, `CCN1CCC2(CC1)CC(NCc1cccs1)c1ccccc1O2.O=C(O)C(F)(F)F.O=C(O)C(F)(F)F` (centres undefined) had a pIC50 of 6.431 and an IC50 of 287 nM.

Turning to `O=C([C@@H]1Cc2[nH]cnc2CN1Cc1cc2ccccc2o1)N1CCCC1`, the pIC50 is 5.967 and 1090 nM corresponded to half-maximal inhibition (IC50).

Regarding `c1ccc(C2CN(C3CC3)CC3(CCN(Cc4ncc[nH]4)CC3)C2)cc1` (centres undefined), the pIC50 was 6.233 and 5.873.

The compound `CC(O)CN1CCC(CNCc2cccc(Br)c2)CC1` (centres undefined) gave a pIC50 of 6.286 and an IC50 of 528 nM.

On to `c1cc(-c2n[nH]cc2-c2ccnc(N3CCCCCC3)n2)ccn1`, for which the pIC50 was 8.34 and the IC50 is 4.12 nM.

On to `CN1CCC(N(C)C[C@H]2CC[C@@H](Cc3ccc4occc4c3)O2)CC1`, for which the pIC50 was determined as 6.011 and 993 nM corresponded to half-maximal inhibition (IC50).

Turning to `CN(C)CCN(Cc1cccnc1)C(=O)c1ccn(-c2ccccc2)n1`, the pIC50 is 5.955 and the IC50 was 876 nM.

`Cc1cc(F)ccc1CN1CCC(O)(CN2CCCCC2)C1` (centres undefined): the pIC50 is given as 6.047 and the 50% inhibitory concentration (IC50) was 1750 nM.

The compound `CCN1CCC2(CC1)CC(NCc1ccncc1)c1ccccc1O2.O=C(O)C(F)(F)F.O=C(O)C(F)(F)F.O=C(O)C(F)(F)F` (centres undefined) had a negative logarithm of the IC50 (pIC50) of 6.198 and an IC50 of 579 nM.

In turn, `O=C(Cn1ccc2ccc(Br)cc21)NC[C@@H]1CCCN2CCCC[C@H]12` showed a pIC50 of 5.89 and an IC50 of 1280 nM.

In turn, `O=C(O)C(F)(F)F.O=C(O)C(F)(F)F.O=C(O)C(F)(F)F.c1ccc(CN2CCCC3(CCN(Cc4cccs4)C3)C2)nc1` (centres undefined) gave a pIC50 of 6.204 and an IC50 of 735 nM.

`Cc1ccc(CN(CCN(C)C)Cc2c(C)nc3sccn23)o1.O=C(O)CC(O)(CC(=O)O)C(=O)O` showed a pIC50 of 6.093 and an IC50 of 506 nM.

Consider `Cc1ccc2c(c1)CN(C(=O)C1CCCCC1)C(CN(C)C)CO2.Cl` (centres undefined), for which the pIC50 stood at 6.082 and the IC50 was 880 nM.

On to `Fc1ccc(CN2CCC3(CC2)CCN(Cc2nccs2)CC3)cc1.O=C(O)C(F)(F)F.O=C(O)C(F)(F)F`, for which the pIC50 turned out to be 6.206 and the IC50 is 708 nM.

Regarding `CCN1CCC2(CC1)CC(NCc1cccc(C)n1)c1ccccc1O2.O=C(O)C(F)(F)F.O=C(O)C(F)(F)F.O=C(O)C(F)(F)F` (centres undefined), the pIC50 turned out to be 6.22 and half-maximal inhibition (IC50) required 780 nM.

Compound `Br.CCOc1ccc(Br)cc1C1CCCN1` (centres undefined) had a pIC50 of 6.082 and an IC50 of 534 nM.

`Cc1ccc(S(=O)(=O)N2CCC(N3CCCCC3)CC2)cc1C` had a pIC50 of 5.751 and an IC50 of 2130 nM.

`Cc1cccc(C)c1Nc1noc2c1CN(C(=O)c1c[nH]nc1C)CC2` had a pIC50 of 6.277 and an IC50 of 691 nM.

`I.c1ccc(Sc2ccc3c(c2)OCO3)c(CNC2=NCCN2)c1` showed a pIC50 of 6.103 and an IC50 of 604 nM.

`Cl.NCC1(c2cccc(Br)c2)CCOCC1` showed a pIC50 of 6.127 and an IC50 of 705 nM.

The compound `CC1CN(Cc2ccccc2Cn2cccn2)CCN1C` (centres undefined) showed a pIC50 of 6.079 and an IC50 of 1080 nM.

For the compound `CCN1CCN(c2ccc(F)cc2C(C)NCc2cscn2)CC1` (centres undefined), the pIC50 was 5.999 and the midpoint of inhibition, the IC50, lay at 907 nM.

Consider `O=C(CN1CCCC(c2ccn[nH]2)C1)Nc1nc2c(s1)CCCC2` (centres undefined), for which the pIC50 turned out to be 6.624 and half-maximal inhibition (IC50) was put at 248 nM.

`Cc1cnn(CCNCc2nccn2Cc2ccccc2)c1` showed a pIC50 of 6.212 and an IC50 of 395 nM.

For `CN(Cc1ccco1)C[C@H]1OC[C@@H]2CCN(Cc3ccccn3)C[C@@H]21.O=C(O)C(F)(F)F.O=C(O)C(F)(F)F.O=C(O)C(F)(F)F`, the pIC50 is recorded as 5.905 and the IC50 is 1720 nM.

Compound `CN(C)[C@@H]1CCN(c2ncc(F)cn2)[C@H]1Cc1ccccc1.O=C(O)C(F)(F)F.O=C(O)C(F)(F)F` gave a pIC50 of 6.038 and a half-inhibitory concentration (IC50) of 868 nM.

For the compound `COc1ccc(-c2c(C)nn3c(=N)c(C#N)n[nH]c23)cc1OC`, the pIC50 is on record as 6.297 and the IC50 is 538 nM.

In turn, `CN1CCC2(Cc3ccccc3CN(C(=O)Cc3cccc(Cl)c3)C2)C1` (centres undefined) gave a pIC50 of 6.082 and an IC50 of 836 nM.

`FC(F)(F)c1cc(C2CCNCC2)nc(-c2ccsc2)n1`: the pIC50 is given as 6.171 and the IC50 is 626 nM.

`CC(C)CN1CCCC1c1ccc(C(=O)Nc2cccnc2)s1` (centres undefined): the pIC50 was 6.101 and inhibition was half-maximal at 537 nM (IC50).

Take `Cc1ccc(CN2CC[C@H]3[C@H](CC(Cn4cccn4)N3C)C2)s1.O=C(O)C(F)(F)F.O=C(O)C(F)(F)F.O=C(O)C(F)(F)F` (some centres undefined): the pIC50 is given as 6.142 and the IC50 was 814 nM.

With `CCc1ccc2nc(NCCCN(CCO)CCO)cc(C)c2c1`, the negative-log IC50 (pIC50) is recorded as 6.107 and the IC50 is 809 nM.

Compound `CCOc1ccc(Cl)cc1C1CCCCN1.Cl` (centres undefined) showed a pIC50 of 6.229 and an IC50 of 612 nM.

In turn, `Cc1noc(C)c1CNCc1ccccc1N(C)C1CCN(C)CC1` had a pIC50 of 6.243 and an IC50 of 489 nM.

On to `Cc1cc2c(cc1CN1CCCCC1CCn1ccnc1C)OCO2` (centres undefined), for which the pIC50 is on record as 6.025 and the 50% inhibitory concentration (IC50) is 1020 nM.

`CCN1CCC(CNCc2cc(C)ccc2OC)C1` (centres undefined) had a pIC50 of 6.037 and an IC50 of 1150 nM.

For `Clc1ccc(C2(CNC3=NCCN3)CC2)cc1.I`, the pIC50 came out at 6.323 and 505 nM corresponded to half-maximal inhibition (IC50).

`CN1CCCCC1c1ncc2c(n1)CCN(Cc1ccc(F)cc1)C2` (centres undefined) had a negative-log IC50 (pIC50) of 5.899 and an IC50 of 1280 nM.

For `Cc1ccc(C2(CN(C)Cc3sccc3C)CCNCC2)nc1`, the pIC50 is 6.117 and half-maximal inhibition (IC50) required 515 nM.

For the compound `CC(C)C(=O)N1CCCC2(CCCN2CC2CCCC2)C1.O=C(O)C(F)(F)F` (centres undefined), the negative-log IC50 (pIC50) is 5.828 and the IC50 was 1150 nM.

Regarding `Cc1ccc(CNC(C)c2cc(F)ccc2N2CCN(C)CC2)o1` (centres undefined), the pIC50 is listed as 6.454 and half-maximal inhibition (IC50) required 329 nM.

Compound `CN1CCCC(c2cccc(Cc3ccccc3Cl)n2)C1` (centres undefined) showed a pIC50 of 6.022 and an IC50 of 1020 nM.

As to `Cc1cc(C)cc(CN2C[C@H]3COC[C@H](N4CCN(C)CC4)[C@H]3C2)c1.O=C(O)C(F)(F)F.O=C(O)C(F)(F)F.O=C(O)C(F)(F)F`, the pIC50 was found to be 6.958 and the IC50 was 197 nM.

As for `NCC(c1ccccc1)N1CCc2sccc2C1` (centres undefined), the negative-log IC50 (pIC50) came out at 6.206 and the midpoint of inhibition, the IC50, lay at 699 nM.

Turning to `Cl.OC(CNCc1ccccc1C(F)(F)F)c1ccccc1` (centres undefined), the pIC50 is reported as 6.179 and the concentration for half-maximal inhibition (IC50) was 709 nM.

The compound `COCCN1CCC2(CC1)CC(NCc1ccc(C)s1)c1ccccc12.O=C(O)C(F)(F)F.O=C(O)C(F)(F)F` (centres undefined) showed a negative-log IC50 (pIC50) of 6.267 and an IC50 of 561 nM.

`CCN1CCCC(CNC(=O)C2(c3cc(C)cc(C)c3)CCC2)C1` (centres undefined) showed a pIC50 of 6.008 and an IC50 of 1510 nM.

Compound `COc1cccc([C@H]2CN(C(C)=O)[C@@H]3CCN(Cc4ccsc4)C[C@H]23)c1.Cl` gave a pIC50 of 5.897 and an IC50 of 1070 nM.
